Source: ChEMBL document CHEMBL1131979, “Synthesis and SAR studies of 1-substituted-n-(4-alkoxycarbonylpiperidin-1-yl)alkanes as potent antiarrhythmic agents” (Bioorg Med Chem Lett, 1999)
Each block holds one molecule with its values, some of them ahead of it. Active and inactive are the calls of the source. No cut-off for these calls is given here.

Assays:
[1] = Lipophilicity was determined; type: physicochemical; conditions: octanol/water
Cavia porcellus [2] = organism: Cavia porcellus; assay: Antiarrhythmic effect expressed as percent reduction of the maximal rate of stimulation for antiarrhythmic activity in guinea pig auricle at 8 uM; type: functional, Heart
Cavia porcellus [3] = organism: Cavia porcellus; assay: Antiarrhythmic effect expressed as percent reduction of the maximal rate of stimulation for antiarrhythmic activity in guinea pig auricle at 8 uM; NS means not significant; type: functional; conditions: Heart
Cavia porcellus [4] = assay: Appearance of ectopic beat (EA) in guinea pig tested for in vivo antiarrhythmic activity against ouabain induced cardiac arrhythmias at a dose of 10 mg/kg by iv administration; type: functional, Heart
Cavia porcellus [5] = assay: Appearance of ectopic beat (EA) in guinea pig tested for in vivo antiarrhythmic activity against ouabain induced cardiac arrhythmias at a dose of 20 mg/kg by po administration; type: functional, Heart
Cavia porcellus [6] = assay: Cardiac arrest(CA) in […] guinea pig tested for in vivo antiarrhythmic activity against ouabain induced cardiac arrhythmias at a dose of 20 mg/kg by po administration; type: functional, Heart
Cavia porcellus [7] = assay: Change in heart rate(HR) in guinea pig tested for in vivo antiarrhythmic activity against ouabain induced cardiac arrhythmias at a dose of 10 mg/kg by iv administration; value ranges from 17-30%; type: functional
Cavia porcellus [8] = assay: Change in heart rate(HR) in guinea pig tested for in vivo antiarrhythmic activity against ouabain induced cardiac arrhythmias at a dose of 20 mg/kg by po administration; value ranges from 10-35%; type: functional
Cavia porcellus [9] = assay: Cardiac arrest(CA) in guinea pig tested for in vivo antiarrhythmic activity against ouabain induced cardiac arrhythmias at a dose of 10 mg/kg by iv administration; type: functional, Heart
Cavia porcellus [10] = assay: Ventricular fibrillation (VF) in guinea pig tested for in vivo antiarrhythmic activity against ouabain induced cardiac arrhythmias at a dose of 10 mg/kg by iv administration; type: functional, Heart
Cavia porcellus [11] = assay: Ventricular fibrillation (VF) in guinea pig tested for in vivo antiarrhythmic activity against ouabain induced cardiac arrhythmias at a dose of 20 mg/kg by po administration; type: functional, Heart
Rattus norvegicus [12] = assay: Ventricular fibrillation (VF) in rats tested for in vivo Antiarrhythmic activity against aconitine induced arrhythmias at a dose of 10 mg/kg by iv administration; type: functional, Heart
Rattus norvegicus [13] = assay: Ventricular tachycardia (VT) in rats tested for in vivo Antiarrhythmic activity against aconitine induced arrhythmias at a dose of 10 mg/kg by iv administration; type: functional, Heart
Rattus norvegicus [14] = assay: Ventricular tachycardia (VT) in rats tested for in vivo Antiarrhythmic activity against aconitine induced arrhythmias at a dose of 25 mg/kg by po administration; type: functional, Heart
Rattus norvegicus [15] = assay: Change in heart rate(HR) in rats tested for in vivo antiarrhythmic activity against aconitine induced arrhythmia at a dose of 10 mg/kg by iv administration; value ranges from 16-34; type: functional
Rattus norvegicus [16] = assay: Change in heart rate(HR) in rats tested for in vivo antiarrhythmic activity against aconitine induced arrhythmias at a dose of 25 mg/kg by po administration; value ranges from 16-34; type: functional
Rattus norvegicus [17] = assay: Appearance of ectopic beat (EA) in rats tested for in vivo Antiarrhythmic activity against aconitine induced arrhythmias at a dose of 10 mg/kg by iv administration; type: functional, Heart
Rattus norvegicus [18] = assay: Appearance of ectopic beat (EA) in rats tested for in vivo Antiarrhythmic activity against aconitine induced arrhythmias at a dose of 25 mg/kg by po administration; type: functional, Heart
Rattus norvegicus [19] = assay: Cardiac arrest(CA) in rats tested for in vivo Antiarrhythmic activity against aconitine induced arrhythmias at a dose of 10 mg/kg by iv administration; type: functional, Heart
Rattus norvegicus [20] = assay: Cardiac arrest(CA) in rats tested for in vivo Antiarrhythmic activity against aconitine induced arrhythmias at a dose of 25 mg/kg by po administration; type: functional, Heart
Rattus norvegicus [21] = assay: Ventricular fibrillation (VF) in rats tested for in vivo Antiarrhythmic activity against aconitine induced arrhythmias at a dose of 25 mg/kg by po administration; type: functional, Heart
Cavia porcellus [22] = assay: Change in heart rate(HR) in guinea pig tested for in vivo antiarrhythmic activity against ouabain induced cardiac arrhythmias at a dose of 20 mg/kg by po administration; value ranges from 18-27%; type: functional
Cavia porcellus [23] = assay: Change in heart rate(HR) in guinea pig tested for in vivo antiarrhythmic activity against ouabain induced cardiac arrhythmias at a dose of 10 mg/kg by iv administration; value ranges from 17-18%; type: functional
Rattus norvegicus [24] = assay: Change in heart rate(HR) in rats tested for in vivo antiarrhythmic activity against aconitine induced arrhythmias at a dose of 10 mg/kg by iv administration; value ranges from 18-30%; type: functional
Rattus norvegicus [25] = assay: Change in heart rate(HR) in rats tested for in vivo antiarrhythmic activity against aconitine induced arrhythmias at a dose of 25 mg/kg by po administration; value ranges from 11-17%; type: functional

SMILES: COC(=O)C1CCN(CCCN2CCN(c3ccccn3)CC2)CC1
inhibition (Cavia porcellus [3]): inactive

SMILES: COC(=O)C1CCN(CCCN2CCN(c3ccc(F)cc3)CC2)CC1
inhibition (Cavia porcellus [3]): inactive

SMILES: CCOC(=O)C1CCN(CCCC(=O)c2ccc(F)cc2)CC1
Log P/(100-P) [1]: -0.462
Inhibition (Cavia porcellus [2]): 25.66%

SMILES: C=C[C@H]1CN2CC[C@H]1C[C@@H]2[C@@H](O)c1ccnc2ccc(OC)cc12.C=C[C@H]1CN2CC[C@H]1C[C@@H]2[C@@H](O)c1ccnc2ccc(OC)cc12.O.O.O=S(=O)(O)O [QUINIDINE SULFATE]
Amount of Ouabain used (Cavia porcellus [4]): 128.33
Amount of Ouabain used (Cavia porcellus [5]): 138.99
Amount of Ouabain used (Cavia porcellus [6]): 225.31
Change in heart rate (Cavia porcellus [22]): 18%
Inhibition (Cavia porcellus [2]): 29.68%
Amount of Ouabain used (Cavia porcellus [9]): 187.59
Amount of Ouabain used (Cavia porcellus [10]): 167.78
Amount of Ouabain used (Cavia porcellus [11]): 201.34
Change in heart rate (Cavia porcellus [23]): 17%
Amount of Acotine used (Rattus norvegicus [12]): 370
Amount of Acotine used (Rattus norvegicus [13]): 252.72
Amount of Acotine used (Rattus norvegicus [14]): 237.02
Change in heart rate (Rattus norvegicus [24]): 18%
Change in heart rate (Rattus norvegicus [25]): 11%
Amount of Acotine used (Rattus norvegicus [17]): 156.24
Amount of Acotine used (Rattus norvegicus [18]): 173.66
Amount of Acotine used (Rattus norvegicus [19]): 523.64
Amount of Acotine used (Rattus norvegicus [20]): 581.06
Amount of Acotine used (Rattus norvegicus [21]): 416.36

Continued, in another order:

Log P/(100-P) [1]: -0.954
SMILES: COC(=O)C1CCN(CCC(=O)N2CCN(c3ccc(F)cc3)CC2)CC1
Inhibition (Cavia porcellus [2]): 10%

Log P/(100-P) [1]: -1.123
SMILES: COC(=O)C1CCN(CCCOc2cccc(NC(C)=O)c2)CC1
Inhibition (Cavia porcellus [2]): 7%

Log P/(100-P) [1]: -0.493
SMILES: COC(=O)C1CCN(CCCC(=O)c2ccc(F)cc2)CC1
Amount of Ouabain used (Cavia porcellus [4]): 101.35
Amount of Ouabain used (Cavia porcellus [5]): 124.56
Amount of Ouabain used (Cavia porcellus [6]): 187.05
Change in heart rate (Cavia porcellus [7]): 17%
Change in heart rate (Cavia porcellus [8]): 10%
Inhibition (Cavia porcellus [2]): 24.33%
Amount of Ouabain used (Cavia porcellus [9]): 175.76
Amount of Ouabain used (Cavia porcellus [10]): 138.04
Amount of Ouabain used (Cavia porcellus [11]): 153.65
Amount of Acotine used (Rattus norvegicus [12]): 373.36
Amount of Acotine used (Rattus norvegicus [13]): 231.27
Amount of Acotine used (Rattus norvegicus [14]): 226.74
Change in heart rate (Rattus norvegicus [15]): 16%
Change in heart rate (Rattus norvegicus [16]): 16%
Amount of Acotine used (Rattus norvegicus [17]): 132.79
Amount of Acotine used (Rattus norvegicus [18]): 159.29
Amount of Acotine used (Rattus norvegicus [19]): 544.28
Amount of Acotine used (Rattus norvegicus [20]): 457.72
Amount of Acotine used (Rattus norvegicus [21]): 356.09

Log P/(100-P) [1]: -1.195
SMILES: COC(=O)C1CCN(CCCN2CCN(c3ccccc3)CC2)CC1
Inhibition (Cavia porcellus [2]): 6%

Log P/(100-P) [1]: -0.954
SMILES: CCCOC(=O)C1CCN(CCCC(=O)c2ccc(F)cc2)CC1
Inhibition (Cavia porcellus [2]): 10%

Log P/(100-P) [1]: -0.865
SMILES: CC(C)OC(=O)C1CCN(CCCC(=O)c2ccc(F)cc2)CC1
Inhibition (Cavia porcellus [2]): 12%
